According to US8975400B2, “2,3-dihydroimidazo[1, 2-c] pyrimidin-5(1 H)-one compounds use as LP-PLA2 inhibitors” (Glaxo Group Limited, priority 2011, dated 2015):
pIC50: −log10 of the molar value.

Key:
[1] = tested on: splenic macrophages and CNS infiltrating macrophages (M1/M2 markers); experiment: Ex vivo analysis of M1 and M2 markers in macrophages of EAE rats by realtime PCR; set-up: species or system rat; conditions: splenic macrophages harvested day 13 post MBP-immunization
Protocol: Ex vivo analysis of proinflammatory (M1) and anti-inflammatory (M2) markers in control and compound treated EAE rats. Splenic macrophages were harvested at day 13 post MBP-immunization and assayed for expression of a variety of markers by realtime PCR. CNS infiltrating cells were harvested and macrophages were analyzed for expression of M1 and M2 markers by realtime PCR.

[2] = tested on: experimental autoimmune encephalomyelitis (EAE) induced by myelin basic protein (MBP); experiment: Rat experimental autoimmune encephalomyelitis (EAE) model, preventive treatment; type: in vivo
Protocol: A further study was carried out to study the impact of Lp-PLA2 inhibitors on modulating M1/M2 imbalance. In this study, rats were induced to develop experimental autoimmune encephalomyelitis (EAE) by immunization with myelin basic protein (MBP) antigen and treated with a known Lp-PLA2 inhibitor: 5-((9-Methoxy-4-oxo-6,7-dihydro-4H-pyrimido[6,1-a]isoquinolin-2-yl)oxy)-2-(3-(trifluoromethyl)phenoxy)benzonitrile (See PCT application no. PCT/CN2011/001597). In this preventive treatment model, the compound was administered at day 0 (day of immunization) and continued to administer until day 22. The study lasted for 25 days. Rats were subsequently monitored for symptoms of EAE. Rats were immunized with MBP to develop EAE and symptoms were monitored daily. Plasma Lp-PLA2 activity, OxLDL, and LysoPC concentration were determined at different time points through the course of EAE.

[3] = biological target: T1, recombinant human Lp-PLA2 (Homo sapiens, UniProt Q13093); experiment: Recombinant human Lp-PLA2 assay (rhLp-PLA2, PED6 assay); type: biochemical; conditions: recombinant human Lp-PLA2, PED6 substrate; upper limit for pIC50 in this assay is 9.3
T1 sequence (Q13093 22-441): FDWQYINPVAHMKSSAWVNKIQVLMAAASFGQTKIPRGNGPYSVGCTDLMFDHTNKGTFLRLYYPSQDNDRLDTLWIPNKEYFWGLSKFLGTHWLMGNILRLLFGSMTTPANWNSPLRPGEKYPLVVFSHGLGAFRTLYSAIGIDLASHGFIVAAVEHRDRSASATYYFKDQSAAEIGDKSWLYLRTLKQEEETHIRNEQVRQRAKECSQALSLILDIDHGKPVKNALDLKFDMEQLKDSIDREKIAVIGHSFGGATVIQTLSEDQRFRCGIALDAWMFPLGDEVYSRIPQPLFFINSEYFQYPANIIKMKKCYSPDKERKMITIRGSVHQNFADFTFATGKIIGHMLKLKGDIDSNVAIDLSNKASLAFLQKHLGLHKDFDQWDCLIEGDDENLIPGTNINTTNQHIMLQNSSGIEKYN
Procedure, shortened: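 Compound preincubated 30 min with rhLp-PLA2 (4 nM or 110 pM) in 50 mM HEPES pH 7.4, 150 mM NaCl, 1 mM CHAPS, then PED6 substrate (4 μM or 5 μM) added. After 20 min at room temperature protected from light, fluorescence read at ex 480/em 540. pIC50 derived from serial-dilution curves.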

[4] = biological target: T2, Lp-PLA2 in human plasma (Homo sapiens, UniProt Q13093); experiment: Lp-PLA2 human plasma assay (Thio-PAF assay); type: biochemical; conditions: pooled human plasma, 2-thio-PAF substrate; read-out: pIC50 in the thio-PAF assay (converted)
T2 construct: This assay may detect the activity of Lp-PLA2 in human plasma; from tissue; host or cells: pooled human plasma
T2 sequence (Q13093 22-441): T1 sequence (Q13093 22-441)
Procedure, shortened: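 Pooled human plasma preincubated 30 min with serially diluted compounds, then 2-thio-PAF substrate with CPM and NEM added in 50 mM HEPES pH 7.4, 150 mM NaCl, 1 mM CHAPS. TFA-quenched after 2 min, 40 min at RT, fluorescence ex 380/em 485; pIC50 from curve fit.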

pIC50 [3]	IC50 [4] [nM]	SMILES	M1 (proinflammatory) markers expression [1]	M2 (anti-inflammatory) markers expression [1]	LysoPC levels ([2]; rat EAE plasma)	plasma Lp-PLA2 activity ([2]; rat EAE plasma)	clinical disease (EAE) ([2]; rat EAE, compound administered day 0 until day 22, study 25 days)
		COc1ccc2c(c1)CCn1c-2cc(Oc2ccc(Oc3cccc(C(F)(F)F)c3)c(C#N)c2)nc1=O [5-((9-Methoxy-4-oxo-6,7-dihydro-4H-pyrimido[6,1-a]isoquinolin-2-yl)oxy)-2-(3-(trifluoromethyl)phenoxy)benzonitrile]	decrease in M1 markers	increase in M2 markers	decreased	decreased	reduction in clinical disease
≥ 8.00	≤ 1000	CN1CCn2c1cc(OCc1ccc(Oc3cccc(C(F)(F)F)c3)c(F)c1)nc2=O [Example E20, 7-((3-fluoro-4-(3-(trifluoromethyl)phenoxy)benzyl)oxy)-1-methy-2,3-dihydroimid-azo[1,2-c]pyrimidin-5(1H)-one]					
